Experimental data as given in patent US7344850B2, “Identification of active-site inhibitors of glycosyltransferases using a generalizable high-throughput screen” (Princeton University, priority 2003, dated 2008).
Read-outs that look alike come from different tables or passages of the source.

Tests used:
[1] = biological target: T1, MurG (Escherichia coli, UniProt P17443); test: fluorescence polarization displacement assay with labeled donor F1; type: binding, E. coli; settings: for Signal change at 25 μM (drop in fluorescence polarization): 25 μM competitor; for Kd: read-out: Dissociation constants
[2] = biological target: T1, MurG; test: radiometric kinetic assay (incorporation of 14C-GlcNAc into Lipid II), secondary screen and IC50; type: biochemical, E. coli; settings: for inhibition pattern with respect to UDP-GlcNAc: kinetic analysis
[3] = biological target: T1, MurG; settings: biotin-capture assay, C10-Lipid I acceptor; cited from earlier work
[4] = biological target: PBP1b (Escherichia coli, UniProt P02919); test: Assays for transglycosylase PBP1b; type: biochemical
Description: The protein was purified as described. Chen, L., Men, H., Ha, S., Ye, X.-Y., Brunner, L., Hu, Y., Walker, S. Biochemistry 2002; Tetrahedron 58, 6585 (2002). Assays were carried out by separately incubating varying amounts of ^14C-GlcNAc-labeled C35 Lipid II (specific activity=273 cpm/pmol) and inhibitors in eppendorf tubes containing 9 μL of buffer (50 mM HEPES at pH 7.5, 10 mM CaCl2, 1000 U/mL penicillin G, 0.2 mM decyl PEG, and 11% DMSO), and 1 μL PBP1b (from a solution freshly prepared by diluting the 50% glycerol stock 20-fold into 5 mM Tris buffer, pH 8.0, containing 8 mM decyl PEG) for 10 min. Reactions were started by adding 1 μL of the above PBP1b mixture to the substrate solution, and were typically stopped after 15 min by adding 10 μL ice cold 10 mM Tris (pH 8.0) containing 0.2% Triton X-100. Reactions were left on ice until spotted on cellulose chromatography paper (3M Whatman chromatography paper). Products and starting material were separated following the works of Anderson et al. using chromatography (isobutyric acid: 1N NH4OH=5:3) and quantitated by scintillation counting. Biochemistry 53, 881 (1965).

[5] = biological target: GtfB (Amycolatopsis orientalis, UniProt P96559); test: biochemical
Description: Inhibitors, dissolved in DMSO, were added at the indicated concentrations to 20 μL reactions containing 50 nM GtfB, 2 mM UDP-glucose, 75 mM Tricine (pH 9), 4 mM TCEP and 600 μM vancomycin aglycone. For consistency, all reactions contained 5% DMSO. Reactions were incubated at 37° C. for 1.5 hr, then quenched with 20 μL cold methanol and centrifuged at 13,000 rpm for 10 min. Reaction mixtures were resolved by analytical HPLC, using a gradient of 0-45% acetonitrile in water/0.1% TFA over 15 min, at a flow rate of 1 mL per minute. Product formation was monitored by UV absorbance at 285 nm.

[6] = biological target: T2, OGT (Homo sapiens, UniProt O15294); test: Assay for OGT; type: biochemical
T2 construct: His tag; made in house; host or cells: E. coli BL21 (DE3) (Novagen)
T2 sequence (O15294 51-920 isoform O15294-2 limits assumed): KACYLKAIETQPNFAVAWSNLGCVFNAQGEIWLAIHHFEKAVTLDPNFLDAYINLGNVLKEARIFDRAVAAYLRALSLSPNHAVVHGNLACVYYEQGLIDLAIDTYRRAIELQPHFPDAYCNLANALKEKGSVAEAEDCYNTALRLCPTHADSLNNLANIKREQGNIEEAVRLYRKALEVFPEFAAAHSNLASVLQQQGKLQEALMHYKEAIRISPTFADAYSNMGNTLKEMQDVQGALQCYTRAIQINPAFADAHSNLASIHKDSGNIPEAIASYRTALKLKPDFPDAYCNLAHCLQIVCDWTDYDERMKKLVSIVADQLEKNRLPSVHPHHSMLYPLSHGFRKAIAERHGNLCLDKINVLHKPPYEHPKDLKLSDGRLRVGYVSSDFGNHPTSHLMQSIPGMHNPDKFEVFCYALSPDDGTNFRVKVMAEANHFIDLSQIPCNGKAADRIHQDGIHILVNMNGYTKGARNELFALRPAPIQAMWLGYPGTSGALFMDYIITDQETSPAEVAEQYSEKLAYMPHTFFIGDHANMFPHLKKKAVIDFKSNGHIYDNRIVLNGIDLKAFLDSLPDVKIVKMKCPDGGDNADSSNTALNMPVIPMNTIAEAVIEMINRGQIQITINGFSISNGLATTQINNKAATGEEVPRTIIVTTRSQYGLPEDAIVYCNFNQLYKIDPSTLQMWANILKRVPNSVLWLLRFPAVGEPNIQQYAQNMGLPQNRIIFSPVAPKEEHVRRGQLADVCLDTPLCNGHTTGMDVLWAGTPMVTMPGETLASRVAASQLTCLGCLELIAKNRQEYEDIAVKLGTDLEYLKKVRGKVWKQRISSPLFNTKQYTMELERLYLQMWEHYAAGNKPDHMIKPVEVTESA
Description: The mitochondrial splice variant of OGT, minus the first 50 amino acids, was cloned into pET 32b, and expressed from Novagen BL21 (DE3) cells. The pellet was lysed with B-PER (Pierce) and rLysozyme (Novagen) and the soluble fraction was purified using His-Bind Resin (Novagen). Assay reaction buffer was 10 mM Tris pH 7.4 with 100 μg/mL BSA. […] Inhibitors tested were added in 0.5 μL of DMSO and the final reaction volume was 20 μL. The reactions were quenched after 50 min at room temperature with 10 μL of formic acid and spotted onto phosphocellulose (Whatman P81) paper disks. The disks were washed for 3×5 min with 1% phosphoric acid, 1 min with acetone and dried before counting. The samples were measured by liquid scintillation counting.

Sequence of GtfB (P96559 whole entry): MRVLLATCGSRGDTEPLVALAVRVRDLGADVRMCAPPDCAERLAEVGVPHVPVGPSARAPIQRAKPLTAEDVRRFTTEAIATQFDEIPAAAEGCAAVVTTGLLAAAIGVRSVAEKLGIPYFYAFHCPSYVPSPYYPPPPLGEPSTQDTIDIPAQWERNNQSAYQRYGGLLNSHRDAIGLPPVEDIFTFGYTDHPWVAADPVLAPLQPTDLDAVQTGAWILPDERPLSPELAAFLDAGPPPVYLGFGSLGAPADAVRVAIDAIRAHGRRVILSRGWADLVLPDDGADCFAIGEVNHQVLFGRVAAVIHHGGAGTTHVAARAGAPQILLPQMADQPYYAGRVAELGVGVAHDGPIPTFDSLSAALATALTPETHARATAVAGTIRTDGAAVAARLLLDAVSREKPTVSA
T1 sequence (P17443 whole entry): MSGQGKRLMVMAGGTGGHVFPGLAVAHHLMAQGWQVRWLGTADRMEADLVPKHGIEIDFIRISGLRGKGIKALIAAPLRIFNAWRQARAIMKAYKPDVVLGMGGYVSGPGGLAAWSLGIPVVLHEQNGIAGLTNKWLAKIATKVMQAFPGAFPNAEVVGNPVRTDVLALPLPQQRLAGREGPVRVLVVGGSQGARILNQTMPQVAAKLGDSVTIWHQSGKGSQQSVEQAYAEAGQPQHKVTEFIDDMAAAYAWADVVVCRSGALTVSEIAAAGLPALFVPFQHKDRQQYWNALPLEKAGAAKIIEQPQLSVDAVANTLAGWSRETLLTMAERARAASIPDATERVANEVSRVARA
Sequence of PBP1b (P02919 whole entry): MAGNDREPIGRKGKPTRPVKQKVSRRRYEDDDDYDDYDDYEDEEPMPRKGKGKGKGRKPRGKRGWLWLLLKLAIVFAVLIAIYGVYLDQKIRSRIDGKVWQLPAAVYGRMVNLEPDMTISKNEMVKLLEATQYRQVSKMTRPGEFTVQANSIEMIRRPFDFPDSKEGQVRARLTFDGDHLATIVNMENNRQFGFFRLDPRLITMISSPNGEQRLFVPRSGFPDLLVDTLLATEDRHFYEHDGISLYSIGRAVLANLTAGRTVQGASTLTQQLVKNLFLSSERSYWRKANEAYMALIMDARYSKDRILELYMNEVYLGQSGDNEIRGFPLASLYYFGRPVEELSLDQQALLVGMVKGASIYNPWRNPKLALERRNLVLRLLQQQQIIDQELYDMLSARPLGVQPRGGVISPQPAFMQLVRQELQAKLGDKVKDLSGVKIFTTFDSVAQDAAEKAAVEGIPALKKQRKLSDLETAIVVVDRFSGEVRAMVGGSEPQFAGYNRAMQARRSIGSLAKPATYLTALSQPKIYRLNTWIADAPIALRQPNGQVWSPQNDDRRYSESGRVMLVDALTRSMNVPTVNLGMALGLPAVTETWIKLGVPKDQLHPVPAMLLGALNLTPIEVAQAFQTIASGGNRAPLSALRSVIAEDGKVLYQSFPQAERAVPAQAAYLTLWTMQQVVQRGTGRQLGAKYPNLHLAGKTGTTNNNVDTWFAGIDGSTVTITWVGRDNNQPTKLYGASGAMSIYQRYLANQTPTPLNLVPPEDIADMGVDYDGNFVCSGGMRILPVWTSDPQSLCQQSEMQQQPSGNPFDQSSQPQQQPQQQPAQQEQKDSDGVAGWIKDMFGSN

Compound | Signal change at 25 μM (drop in fluorescence polarization) [1] | IC50 [3] | IC50 ([4]; read-out: IC50 PBP1b) | IC50 [2] | IC50 [5] | IC50 ([6]; read-out: IC50 OGT) | Kd ([1]; displacement of F1 from MurG) | other results
O=c1ccn([C@@H]2O[C@H](COP(=O)(O)OP(=O)(O)O)[C@@H](O)[C@H]2O)c(=O)[nH]1 [UDP, uridine diphosphate] | 50% | 65 ± 1 µM |  |  |  |  |  | polarization reading relative to wells containing only MurG and labeled donor ([1]; 25 μM UDP control well): approximately 50%; Kd [1]: 2.6 ± 0.2 µM; inhibition at 5 µM ([2]; read-out: inhibition of MurG reaction (drop in product formation)): 50%
O=C1/C(=C2/C(=O)N(Cc3ccccc3)c3ccc(Br)cc32)SC(=S)N1CCS(=O)(=O)O [Compound 3] |  |  | > 100 µM | 3.5 µM | 15 µM | > 100 µM |  | 
O=C(O)c1ccc(N2C(=O)/C(=C/c3ccc(-c4ccc(Br)cc4)o3)C=C2c2ccccc2)cc1 [Compound 7] |  |  | > 100 µM | 5.4 µM | 100 µM | > 100 µM |  | inhibition pattern with respect to UDP-GlcNAc [2]: competitive inhibitors
O=c1ccn([C@@H]2O[C@H](COP(=O)(O)O)[C@@H](O)[C@H]2O)c(=O)[nH]1 [UMP] | <10% | 600 ± 50 µM |  |  |  |  | 99.6 ± 12.2 µM | 
Nc1ncnc2c1ncn2[C@@H]1O[C@H](COP(=O)(O)OP(=O)(O)O)[C@@H](O)[C@H]1O [ADP] | <10% | 1260 ± 300 µM |  |  |  |  | 88.2 ± 26.9 µM | 
CC1CCN(CN2C(=O)/C(=C\c3ccc(C(C)(C)C)cc3)SC2=S)CC1 [Compound 1, 5-(4-tert-Butyl-benzylidene)-3-(4-methyl-piperidin-1-ylmethyl)-2-thioxo-thiazolidin-4-one] |  |  | > 100 µM | 1.4 µM | 15 µM | > 100 µM |  | inhibition pattern with respect to UDP-GlcNAc [2]: competitive inhibitors
CC(C)(C)c1ccc(OCCOc2cccc(C=C3C(=O)NC(=S)NC3=O)c2)cc1 [Compound 6] |  |  |  | 4 µM | 100 µM |  |  | IC50 [4]: > 100 µM; IC50 [6]: > 100 µM
CC(=O)N[C@H]1[C@@H](OP(=O)(O)OP(=O)(O)OC[C@H]2O[C@@H](n3ccc(=O)[nH]c3=O)[C@H](O)[C@@H]2O)O[C@H](CO)[C@@H](O)[C@@H]1O [UDP-GlcNAc, UDP-N-acetylglucosamine] |  |  |  |  |  |  | 1.8 ± 0.2 µM | 
O=C(O)CN1C(=O)/C(=C\c2cc(Cl)cc(Br)c2O)SC1=S [Compound 2] |  |  | > 100 µM | 3.4 µM | 4 µM | > 100 µM |  | 
CC(=O)N[C@H]1[C@@H](OP(=O)(O)OP(=O)(O)OC[C@H]2O[C@@H](n3ccc(=O)[nH]c3=O)[C@H](O)[C@@H]2O)O[C@H](CO)[C@H](O)[C@@H]1O [UDP-GalNAc] | 10% | > 1000 µM |  |  |  |  | 73.1 ± 14.1 µM | 
Cc1cc(/C=C2\C(=O)NC(=S)N(c3cccc(Cl)c3)C2=O)c(C)n1-c1cc(C(=O)O)cc(C(=O)O)c1 [Compound 5] |  |  |  | 1.4 µM | 50 µM |  |  | IC50 [4]: > 100 µM; inhibition pattern with respect to UDP-GlcNAc [2]: competitive inhibitors; IC50 [6]: > 100 µM
O=C1NC(=O)N(c2ccc(Cl)cc2)C(=O)/C1=C/c1ccc(Br)o1 [Compound 4] |  |  |  | 6.4 µM | 11 µM |  |  | IC50 [4]: > 100 µM; IC50 [6]: > 100 µM
